Measured values as given in PubChem BioAssay (NCI).
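Results reflect a 48-hour exposure of cells in 96-well plates to compound at five concentrations. The concentration for 50% growth inhibition is given as GI50. The concentration for full growth arrest is given as TGI.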

Key:
Test in all cases: growth of human tumour cells (NCI), 48 h
HS 578T breast = test system: HS 578T breast
HCT-15 colon = test system: HCT-15 colon
SF-295 CNS = test system: SF-295 CNS
UO-31 renal = test system: UO-31 renal
SF-539 CNS = test system: SF-539 CNS
OVCAR-4 ovarian = test system: OVCAR-4 ovarian
HCT-116 colon = test system: HCT-116 colon
NCI-H460 lung = test system: NCI-H460 lung
EKVX NSCLC = test system: EKVX NSCLC
MDA-MB-231 breast = test system: MDA-MB-231 breast
UACC-62 melanoma = test system: UACC-62 melanoma
HCC-2998 colon = test system: HCC-2998 colon
CAKI-1 renal = test system: CAKI-1 renal
NCI/ADR-RES ovarian = test system: NCI/ADR-RES ovarian
SK-MEL-28 melanoma = test system: SK-MEL-28 melanoma
SK-OV-3 ovarian = test system: SK-OV-3 ovarian
K-562 leukemia = test system: K-562 leukemia
UACC-257 melanoma = test system: UACC-257 melanoma
RXF 393 renal = test system: RXF 393 renal
NCI-H23 lung = test system: NCI-H23 lung
SK-MEL-2 melanoma = test system: SK-MEL-2 melanoma
RPMI-8226 leukemia = test system: RPMI-8226 leukemia
SW-620 colon = test system: SW-620 colon
SNB-19 CNS = test system: SNB-19 CNS
IGROV1 ovarian = test system: IGROV1 ovarian
ACHN renal = test system: ACHN renal
NCI-H226 lung = test system: NCI-H226 lung
NCI-H522 lung = test system: NCI-H522 lung
A549 NSCLC = test system: A549 NSCLC
SR leukemia = test system: SR leukemia
TK-10 renal = test system: TK-10 renal
SF-268 CNS = test system: SF-268 CNS
HOP-92 NSCLC = test system: HOP-92 NSCLC
MALME-3M melanoma = test system: MALME-3M melanoma
KM12 colon = test system: KM12 colon
PC-3 prostate = test system: PC-3 prostate
DU-145 prostate = test system: DU-145 prostate
MOLT-4 leukemia = test system: MOLT-4 leukemia
HL-60(TB) leukemia = test system: HL-60(TB) leukemia
M14 melanoma = test system: M14 melanoma
SNB-75 CNS = test system: SNB-75 CNS
T-47D breast = test system: T-47D breast
COLO 205 colon = test system: COLO 205 colon
LOX IMVI melanoma = test system: LOX IMVI melanoma
MCF7 breast = test system: MCF7 breast
A498 renal = test system: A498 renal
CCRF-CEM leukemia = test system: CCRF-CEM leukemia
SK-MEL-5 melanoma = test system: SK-MEL-5 melanoma
786-0 renal = test system: 786-0 renal
U251 CNS = test system: U251 CNS
HT29 colon = test system: HT29 colon
OVCAR-3 ovarian = test system: OVCAR-3 ovarian
SN12C renal = test system: SN12C renal
BT-549 breast = test system: BT-549 breast
OVCAR-8 ovarian = test system: OVCAR-8 ovarian
OVCAR-5 ovarian = test system: OVCAR-5 ovarian
HOP-62 NSCLC = test system: HOP-62 NSCLC
MDA-MB-435 = test system: MDA-MB-435

O=C(c1cccs1)c1c(C(F)(F)F)n([O-])c2ccc(Cl)cc2[n+]1=O
GI50 (HS 578T breast): 11400 nM
TGI (HS 578T breast): > 34000 nM
GI50 (HCT-15 colon): 109 nM
TGI (HCT-15 colon): 359 nM
GI50 (SF-295 CNS): 149 nM
TGI (SF-295 CNS): 703 nM
GI50 (UO-31 renal): 185 nM
TGI (UO-31 renal): 745 nM
GI50 (SF-539 CNS): 282 nM
TGI (SF-539 CNS): 568 nM
GI50 (OVCAR-4 ovarian): 2610 nM
TGI (OVCAR-4 ovarian): > 50000 nM
GI50 (HCT-116 colon): 46.5 nM
TGI (HCT-116 colon): 723 nM
GI50 (NCI-H460 lung): 359 nM
TGI (NCI-H460 lung): > 24900 nM
GI50 (EKVX NSCLC): 185 nM
TGI (EKVX NSCLC): 523 nM
GI50 (MDA-MB-231 breast): 124 nM
TGI (MDA-MB-231 breast): 431 nM
GI50 (UACC-62 melanoma): 212 nM
TGI (UACC-62 melanoma): 562 nM
GI50 (HCC-2998 colon): 735 nM
TGI (HCC-2998 colon): 1430 nM
GI50 (CAKI-1 renal): 128 nM
TGI (CAKI-1 renal): 671 nM
GI50 (NCI/ADR-RES ovarian): 1750 nM
TGI (NCI/ADR-RES ovarian): 6240 nM
GI50 (SK-MEL-28 melanoma): 9460 nM
TGI (SK-MEL-28 melanoma): > 50000 nM
GI50 (SK-OV-3 ovarian): 7810 nM
TGI (SK-OV-3 ovarian): 20100 nM
GI50 (K-562 leukemia): 115 nM
TGI (K-562 leukemia): 2620 nM
GI50 (UACC-257 melanoma): 614 nM
TGI (UACC-257 melanoma): 3360 nM
GI50 (RXF 393 renal): 2090 nM
TGI (RXF 393 renal): 11700 nM
GI50 (NCI-H23 lung): 454 nM
TGI (NCI-H23 lung): 2260 nM
GI50 (SK-MEL-2 melanoma): 912 nM
TGI (SK-MEL-2 melanoma): > 20800 nM
GI50 (RPMI-8226 leukemia): 5 nM
TGI (RPMI-8226 leukemia): 16.3 nM
GI50 (SW-620 colon): 248 nM
TGI (SW-620 colon): 4680 nM
GI50 (SNB-19 CNS): 1210 nM
TGI (SNB-19 CNS): > 14800 nM
GI50 (IGROV1 ovarian): 56.3 nM
TGI (IGROV1 ovarian): 1650 nM
GI50 (ACHN renal): 16.7 nM
TGI (ACHN renal): 44.2 nM
GI50 (NCI-H226 lung): 398 nM
TGI (NCI-H226 lung): 2360 nM
GI50 (NCI-H522 lung): 406 nM
TGI (NCI-H522 lung): 6070 nM
GI50 (A549 NSCLC): 168 nM
TGI (A549 NSCLC): 730 nM
GI50 (SR leukemia): 154 nM
TGI (SR leukemia): 621 nM
GI50 (TK-10 renal): 106 nM
TGI (TK-10 renal): 333 nM
GI50 (SF-268 CNS): 434 nM
TGI (SF-268 CNS): 1360 nM
GI50 (HOP-92 NSCLC): 866 nM
TGI (HOP-92 NSCLC): 5680 nM
GI50 (MALME-3M melanoma): 6360 nM
TGI (MALME-3M melanoma): 13900 nM
GI50 (KM12 colon): 111 nM
TGI (KM12 colon): 302 nM
GI50 (PC-3 prostate): 97.2 nM
TGI (PC-3 prostate): 339 nM
GI50 (DU-145 prostate): 311 nM
TGI (DU-145 prostate): 547 nM
GI50 (MOLT-4 leukemia): 28.9 nM
TGI (MOLT-4 leukemia): 340 nM
GI50 (HL-60(TB) leukemia): 152 nM
TGI (HL-60(TB) leukemia): 1510 nM
GI50 (M14 melanoma): 322 nM
TGI (M14 melanoma): 1090 nM
GI50 (SNB-75 CNS): 2760 nM
TGI (SNB-75 CNS): > 50000 nM
GI50 (T-47D breast): 505 nM
GI50 (COLO 205 colon): 569 nM
TGI (COLO 205 colon): 10200 nM
GI50 (LOX IMVI melanoma): 65.3 nM
TGI (LOX IMVI melanoma): 131 nM
GI50 (MCF7 breast): 94.2 nM
TGI (MCF7 breast): 2480 nM
GI50 (A498 renal): 10800 nM
TGI (A498 renal): 18500 nM
GI50 (CCRF-CEM leukemia): 93.3 nM
GI50 (SK-MEL-5 melanoma): 541 nM
TGI (SK-MEL-5 melanoma): 2540 nM
GI50 (786-0 renal): 36.2 nM
TGI (786-0 renal): 69 nM
GI50 (U251 CNS): 130 nM
TGI (U251 CNS): 586 nM
GI50 (HT29 colon): 1290 nM
TGI (HT29 colon): > 50000 nM
GI50 (OVCAR-3 ovarian): 461 nM
TGI (OVCAR-3 ovarian): 2850 nM
GI50 (SN12C renal): 175 nM
TGI (SN12C renal): 572 nM
GI50 (BT-549 breast): 289 nM
TGI (BT-549 breast): 655 nM
GI50 (OVCAR-8 ovarian): 1260 nM
TGI (OVCAR-8 ovarian): > 20900 nM
GI50 (OVCAR-5 ovarian): 2020 nM
TGI (OVCAR-5 ovarian): 9680 nM
GI50 (HOP-62 NSCLC): 64.9 nM
TGI (HOP-62 NSCLC): 146 nM
GI50 (MDA-MB-435): 289 nM
TGI (MDA-MB-435): 2020 nM
